Measurements: patent US20030153611A1, “1,3-Diarylprop-2-en-1-ones, compositions containing them and use thereof” (AVENTIS PHARMA S.A., priority 2001, published 2003)
Structures can show the parent of a compound that is named as a salt.

How the values were obtained:
[1] = system: C51 murine adenocarcinoma; assay: Assessment of the tumor necrosis in vivo; conditions: intravenous injection, 24 hours after treatment, female BALB/c mice
Description: Mice are bred by IFFA-CREDO (Domaine des Oncins, 69210 L'Arbresle, France) from a race obtained by Jackson Laboratories, Bar Harbor, Me., USA, or by Charles River France (76410 St Aubin les Elbeuf, France) from a race obtained by Charles River, USA. The mice initially weigh more than 18 g at the start of the test. They have free access to food (UAR reference 113, Villemoisson, 91160 Epinay sur Orge, France) and water.
The tumors used are currently transplanted in our laboratories. All these tumors are at the Frederick Cancer Research Facility (Frederick, Md., USA) in the frozen tumor deposit of the National Cancer Institute (NCl) or at the American Type Culture Collection (ATCC, Rockville, Md., USA).
The tumor transplantation techniques, the chemotherapy and the data analysis are presented in detail (Corbett et al. 1982a; Corbett et al., 1982b).
To summarize, the animals required for an experiment are assembled and implanted bilaterally on day 0 (zero).
The growth of the solid tumors develops freely up to the desired size. The mice are then treated by intravenous injection of a test compound in solution.
The sampling of tumors is usually (but not necessarily) carried out 24 hours after the treatment.
The mice are killed by […]. The implanted tumors, along with the skin covering them and the neighboring tissues, are collected and stored in 10% formaldehyde (v/v) (Carlo Erba, Val de Reuil, France).
The samples are then treated, sectioned, stained with hematoxylin, eosin and saffron yellow, and are then examined […]. The tumor necrosis (necrosis±degeneration) is assessed microscopically using a scale of magnitude from 0 to 5:
The values assigned to the tumor necrosis 24 hours after administration of the test compound correspond solely to a necrosis dependent on the product which may be differentiated with certainty from any existing necrosis arising from the experiment.
The necrosis due to the experiment was assessed on an untreated control.
The tumor model is a C51 murine adenocarcinoma. This colon tumor is a grade III mucous colon […]. It is maintained by serial subcutaneous passages every 18 days in female BALB/c mice. The experiments were carried out on female BALB/c mice.

HDMEC cells = assay: Detachment effect on HDMEC endothelial cells; format: cell-based, Human; conditions: 1 μM, treatment for two hours
Description: A test to determine the detachment of endothelial cells was established in order to select the products on the basis of their “in vitro” activity. This test for determining the endothelial cell detachment is characterized in that the endothelial cells, inoculated in plates which are coated at the bottom with a binder, e.g., chosen from gelatin, fibronectin or vitronectin, after culturing, are supplemented with a medium containing the test compound, and the cells are then labeled with a fluorescent substance, the cells which become detached are removed by washing and the fluorescence of the remaining cells is counted in a fluorimeter.
This test consists in measuring the detachment of endothelial cells cultured on substrates based on a binder, e.g., chosen from fibronectin, vitronectin and gelatin. One day after inoculating the cells in plates containing 96 wells, for example, the culture medium is replaced with a medium containing the test compound in the absence of serum. The same preparation is prepared six times at three different concentrations ([…]) and the control without addition of antivascular product is prepared six times. After treatment for two hours with the test substance, the cells are labeled with calcein-AM (1.6 μg/ml) in a culture medium supplemented with 0.1% BSA. The cells which become detached are removed by washing with the culture medium containing 0.1% bovine serum albumin; 100 μl of medium are added to each well. The fluorescence of the remaining cells is counted in a fluorimeter. The data obtained are expressed relative to the control (untreated cells).
(§1) The assessment of the detachment of the endothelial cells in vitro is determined in the following way. HDMEC cells (Human Dermal Microvascular Endothelial Cells, Promocell, c-122102) are cultured in an ECGM-MV medium containing 5% fetal calf serum, growth factors (EGF 10 ng/ml, hydrocortisone 1 μg/ml, 0.4% growth supplement with heparin) and antibiotics (amphotericin 50 ng/ml, gentamicin 50 μg/ml). For the detachment test, the HDMECs are inoculated at a rate of 5 000 cells in clear-bottomed 96-well plates (Costar) precoated with fibronectin (10 μg/ml) or vitronectin (1 μg/ml) or gelatin. Twenty-four hours later, the culture medium is replaced with 0.1% BSA ECGM-MV medium containing the indicated products. The test concentrations are 0.1-0.3 and 1 μM for each product. After treatment for two hours, the cells are labeled for 1 hour with calcein (1.6 μg/ml, Molecular Probes) in 0.1% BSA ECGM-MV medium. The detached cells are then removed by washing with 0.1% BSA ECGM-MV medium; 100 μl of medium are added to each well. The fluorescence of the cells which remain attached to the substratum of the well is counted using a fluorimeter, Spectrafluor Plus (Tecan, excitation at 485 nm, and emission at 535 nm). The data are the average of six different samples and are expressed as a percentage of the control (untreated cells).
A cell detachment effect of greater than or equal to 15% is considered as significant.
as §1, with “(amphotericine” for “(amphotericin”, “The detached cells are then removed by washing with 0.1% BSA ECGM-MV medium; 100 μl of medium are added to each well. The fluorescence of the cells which remain attached to the substratum of the well is counted using a fluorimeter, Spectrafluor Plus (Tecan, excitation at 485 nm, and emission at 535 nm). The data are the average of six different samples and are expressed as a percentage of the control (untreated cells).” left out

HDMEC = assay: Inhibition of cell proliferation, HDMEC; format: cell-based; conditions: Homo sapiens
HeLa cells = assay: Inhibition of proliferation of HeLa cells ([14C]-thymidine incorporation); format: cell-based; conditions: Homo sapiens, incubation for 48 hours, read-out: Inhibition of cell proliferation IC50 HeLa
Experimental: The proliferation of HeLa cells is assessed by measuring the incorporation of [^14C]-thymidine in the following way. The HeLa cells (epithelial tumor cells of human origin) are cultured in a DMEM medium (Gibco) which contains 10% fetal calf serum and antibiotics (1% penicillin, 1% streptomycin). To carry out the proliferation test, the cells are inoculated into 96-well cytostar microplates (Amersham), at a rate of 5 000 cells per well. [^14C]-thymidine (0.1 μCi/well) and the products to be assessed are then added. Variable concentrations of products up to 10 μM are used; the DMSO (solvent used to dissolve the products) should not exceed 0.5% in the medium. After incubation for 48 hours at 37° C., the radioactivity incorporated into the cells is measured by counting the plate in a TRI-LUX counter (Wallac). The IC50 value is defined as the concentration of product which reduces the radioactivity by 50% relative to an untreated control. A product whose IC50 value is less than 1 μM is considered as cytotoxic.

Compound	C51 colon tumor necrosis in vivo (grade) ([1]; 25 mg/kg)	Percentage of detachment of HDMEC cells induced with the compound at a concentration of 1 μM (HDMEC cells) [%]	IC50 (HDMEC) [µM]	IC50 (HeLa cells) [µM]	C51 colon tumor necrosis in vivo (grade) ([1]; 12.5 mg/kg)
COc1cc(C(=O)/C(C)=C/c2ccc3c(ccn3C)c2)cc(OC)c1OC [Example 5, E-2-Methyl-3-(1-methyl-1-H-indol-5-yl)-1-(3,4,5-trimethoxyphenyl)propenone]	Grade 5 at 25 (5=large, >75%)	32	0.03	0.005 to 0.01	
COc1ccc(/C=C(\C)C(=O)c2cc(OC)c(OC)c(OC)c2)cc1NC(=O)[C@@H](N)CO [Example 13, (S)-2-Amino-3-hydroxypropanoic acid {2-methoxy-5-[2-methyl-3-oxo-3-(3,4,5-trimethoxyphenyl)propenyl]phenyl}amide hydrochloride]		31	0.03	0.1	Grade 5 at 12.5 (5=large, >75%)
